Data set [1] has as its system Purkinje fiber of the right ventricular free wall (myocardial action potential). Description: Influence on myocardial action potential duration time (APD75), isolated right ventricular free wall, microelectrode in Purkinje fiber. In kind it is cell-based, dog. As to conditions: Canis lupus familiaris, 20 min, 20 minutes' incubation; for activation at 1 µg/mL: 1.0 μg/ml; for activation at 1 µg/mL / activation at 3 µg/mL / activation at 10 µg/mL: (B-A)/A×100, read-out: APD75 (%); for activation at 3 µg/mL: 3.0 μg/ml; for activation at 10 µg/mL: 10.0 μg/ml.

Data set [2] has as its system ventricular muscle refractory period. Description: Influence on ventricular muscle refractory period (ERP). In kind it is in vivo, mongrel dog. The note with it: Canis lupus familiaris, iv, i.v., (W-Y)/Y×100, read-out: ERP (%; extensibility of refractory period). The method, then:
(2) Influence on ventricular muscle refractory period Refractory periods were measured in the following manner before and after each of the compounds and d-sotalol shown in Table 2 was separately administered to a vein or a duodenum, and ERP (%; extensibility of refractory period) was calculated from the measured values: ERP (%)=(W-Y)/Y×100 W: Refractory period after administration Y: Refractory period before administration To a mongrel adult dog, 30 mg/kg of pentobarbital was administered intravenously, and after being anesthetized, a pair of silver-silver chloride electrodes separated by 3 mm was sewn on an opened right ventricule, and electrical stimulation was given at an interval of 400 msec at a duration time of 4 msec under a current twice as much as the threshold. Afterward, a small amount of alcohol was injected into a sinus artery in order to extinguish a pacemaker activity, and the ventricular refractory period (ERP) was measured under ventricule pacing. That is, each 1 train comprised 10 stimulations having intervals of 400 msec, and an interval between the trains was usually 400 msec. However, this interval was shortened 10 msec by 10 msec at the time of the refractory period measurement, and an interval between the trains at the time when reaction to the first stimulation of the train disappeared was regarded as the refractory period. In this case, the electrical stimulation was fed in accordance with a program by a heart stimulation device (Diamedical Co., Ltd.; DHM-226-3).

Data set [3] can be described thus: Toxicity test, mortality rate 24 hours after administration. As to conditions: mouse, in vivo. The method, then: Each of the compounds prepared in the above-mentioned examples was administered into a mouse (ddY strain, male). In each case, oral administration (p.o.) and intra peritoneal administration (i.p.) were separately carried out in a dose of 300 mg/kg and 250 mg/kg, respectively.
A mortality rate (number of specimens: one group=2 to 4 mice) of the mice 24 hours after the administration was calculated, and the results are set forth in Table 3.
Following the same procedure as in Toxicity Test 1, toxicity of the respective compounds prepared in the above examples in Table 5 was tested to calculate a mortality rate of mice.
Administration was made by oral administration (p.o.) in an amount of 300 mg/kg of each compound for one mouse.
Following the same procedure as in Toxicity Test 1, toxicity of the respective compounds prepared in the above examples in Table 7 was tested to calculate a mortality rate of mice.

Among the data in patent publication US5008267A, “Pyrimidinedione compounds, method of producing the same and antiarrythmic agents containing the same” (Mitsui Toatsu Chemicals, Incorporated, priority 1988, dated 1991) are activation, change in vivo and mortality values, retold here.

SMILES strings stand for the structures. Counter-ions that a name gives are not always drawn.

Turning to `CCN(CCCc1ccc([N+](=O)[O-])cc1)CCNc1cc(=O)n(C)c(=O)n1C` [Compound 4, 1,3-dimethyl-6-{2-<N-ethyl-N-[3-(4-nitrophenyl)propyl]amino>ethylamino}-2,4(1H,3H)-pyrimidinedione hydrochloride], in data set [1], the activation at 1 µg/mL came out at 11% and the activation at 3 µg/mL stood at 16%. Also, in data set [2], the change in vivo at 0.1 mg/kg amounted to 5.6%, the change in vivo at 0.3 mg/kg is 11.1%, the change in vivo at 1 mg/kg amounted to 16.7% and the change in vivo at 3 mg/kg was 16.7%. Also, the mortality at 24 h in data set [3] (ip, 250 mg/kg (i.p.)) was found to be 0%. In data set [3] (po, 300 mg/kg (p.o.)), the mortality at 24 h is 0%.

Take `CCN(CCCCc1ccc([N+](=O)[O-])cc1)CCNc1cc(=O)n(C)c(=O)n1C` [Compound 22]: the mortality at 24 h in data set [3] (ip, 250 mg/kg (i.p.)) is 50%; in data set [3] (po, 300 mg/kg (p.o.)) it was 0%.

Consider `Cn1c(NCCN(CCO)CCCCc2ccc([N+](=O)[O-])cc2)cc(=O)n(C)c1=O` [Compound 23], for which, in data set [1], the activation at 1 µg/mL stood at 18%, the activation at 3 µg/mL was found to be 35% and the activation at 10 µg/mL turned out to be 39%. This molecule also displayed a mortality at 24 h in data set [3] (po, 300 mg/kg (p.o.)) of 0%.

In turn, `Cn1c(N2CCN(CCNC(=O)c3ccc([N+](=O)[O-])cc3)CC2)cc(=O)n(C)c1=O` [Compound 45, 1,3-dimethyl-6-{4-[2-(4-nitrobenzoylamino)ethyl]piperazin-1-yl}-2,4(1H,3H)-pyrimidinedione hydrochloride] showed a mortality at 24 h in data set [3] (po, 300 mg/kg (p.o.)) of 0%.

For `Cn1c(N2CCN(CCCCOc3ccc([N+](=O)[O-])cc3)CC2)cc(=O)n(C)c1=O` [Compound 54, 1,3-dimethyl-6-{4-[4-(4-nitrophenoxy)butyl]piperazin-1-yl}-2,4(1H,3H)-pyrimidinedione hydrochloride], in data set [1], the activation at 3 µg/mL was 15% and the activation at 10 µg/mL worked out at 26%. Moreover, the mortality at 24 h in data set [3] (po, 300 mg/kg (p.o.)) stood at 0%.

With `Cn1c(NCCNC(=O)c2ccc([N+](=O)[O-])cc2)cc(=O)n(C)c1=O` [Compound 56, 1,3-dimethyl-6-[2-(4-nitrobenzoylamino)ethylamino]-2,4(1H,3H)-pyrimidinedione], in data set [2], the change in vivo at 0.1 mg/kg came to 6.7%, the change in vivo at 0.3 mg/kg came out at 6.7% and the change in vivo at 1 mg/kg is 6.7%. In data set [3] (po, 300 mg/kg (p.o.)), this molecule displayed a mortality at 24 h of 50%.

In data set [3] (po, 300 mg/kg (p.o.)), `CC(=O)c1ccc(OCCCN2CCN(c3cc(=O)n(C)c(=O)n3C)CC2)c([N+](=O)[O-])c1` [Compound 77, 1,3-dimethyl-6-{4-[3-(4-acetyl-2-nitrophenoxy)propyl]piperazin-1-yl}-2,4(1H,3H)-pyrimidinedione oxalate] registered a mortality at 24 h of 0%.

In turn, `Cn1c(N2CCN(CCOc3ccc([N+](=O)[O-])cc3C(=O)c3ccc(Br)cc3)CC2)cc(=O)n(C)c1=O` [Compound 100] gave a mortality at 24 h in data set [3] (po, 300 mg/kg (p.o.)) of 0%.

In data set [3] (po, 300 mg/kg (p.o.)), `Cn1c(N2CCN(CCOc3ccc(C(=O)c4ccccc4)cc3[N+](=O)[O-])CC2)cc(=O)n(C)c1=O` [Compound 103] showed a mortality at 24 h of 0%.

Consider `Cn1c(N2CCN(c3ccc([N+](=O)[O-])cc3C(=O)c3ccccc3)CC2)cc(=O)n(C)c1=O` [Compound 128, 1,3-dimethyl-6-{4-(2-benzoyl-4-nitrophenyl)piperazin-1-yl}-2,4(1H,3H)-pyrimidinedione oxalate], for which the mortality at 24 h in data set [3] (po, 300 mg/kg (p.o.)) amounted to 0%.

As for `Cn1c(NCCNc2ccc([N+](=O)[O-])cc2C(=O)c2ccccc2)cc(=O)n(C)c1=O` [Compound 131, 1,3-dimethyl-6-[2-(2-benzoyl-4-nitroanilino)ethylamino]-2,4(1H,3H)-pyrimidinedione oxalate], the mortality at 24 h in data set [3] (po, 300 mg/kg (p.o.)) worked out at 0%.

As for `Cn1c(N2CCN(CCc3ccc([N+](=O)[O-])cc3C(=O)c3ccccc3)CC2)cc(=O)n(C)c1=O` [Compound 133, 1,3-dimethyl-6-(4-[2-(2-benzoyl-4-nitrophenyl)ethyl]piperazin-1-yl)-2,4(1H,3H)-pyrimidinedione oxalate], in data set [2], the change in vivo at 0.1 mg/kg turned out to be 6.3%, the change in vivo at 0.3 mg/kg is 6.3% and the change in vivo at 1 mg/kg was determined as 18.8%. Also, in data set [3] (po, 300 mg/kg (p.o.)), the mortality at 24 h was determined as 0%.

As to `Cn1c(N2CCN(Cc3ccc([N+](=O)[O-])cc3C(=O)c3ccccc3)CC2)cc(=O)n(C)c1=O` [Compound 134, 1,3-dimethyl-6-{4-[(2-benzoyl-4-nitrophenyl)methyl]piperazin-1-yl}-2,4(1H,3)-pyrimidinedione oxalate], in data set [3] (po, 300 mg/kg (p.o.)), the mortality at 24 h was 0%.

In the case of `Cn1c(N2CCN(CCCOc3ccc([N+](=O)[O-])cc3C(O)c3ccccc3)CC2)cc(=O)n(C)c1=O` (stereo not drawn) [Compound 148, 1,3-dimethyl-6-{4-<3-[2-(α-hydroxybenzyl)-4-nitrophenyloxy]propyl>piperazin-1-yl}-2,4(1H,3H)-pyrimidinedione oxalate], the mortality at 24 h in data set [3] (po, 300 mg/kg (p.o.)) is 0%.

Consider `Cn1c(N2CCN(CCCOc3ccc([N+](=O)[O-])cc3O)CC2)cc(=O)n(C)c1=O` [Compound 162, 1,3-dimethyl-6-{4-[3-(2-hydroxy-4-nitrophenyloxy)propyl]piperazin-1-yl}-2,4(1H,3H)-pyrimidinedione hydrochloride], for which, in data set [1], the activation at 1 µg/mL turned out to be 19%, the activation at 3 µg/mL was found to be 41% and the activation at 10 µg/mL worked out at 60%. Besides, in data set [2], the change in vivo at 0.1 mg/kg stood at 0%, the change in vivo at 0.3 mg/kg was 0%, the change in vivo at 1 mg/kg worked out at 0% and the change in vivo at 3 mg/kg amounted to 0%.

With `COc1cc([N+](=O)[O-])ccc1OCCCN1CCN(c2cc(=O)n(C)c(=O)n2C)CC1` [Compound 164, 1,3-dimethyl-6-{4-[3-(2-methoxy-4-nitrophenyloxy)propyl]piperazin-1-yl}-2,4(1H,3H)-pyrimidinedione hydrochloride], in data set [1], the activation at 3 µg/mL stood at 8% and the activation at 10 µg/mL turned out to be 12%. Further, in data set [2], the change in vivo at 0.1 mg/kg stood at 0%, the change in vivo at 0.3 mg/kg is 7.7%, the change in vivo at 1 mg/kg turned out to be 15.4% and the change in vivo at 3 mg/kg came to 15.4%.

In data set [3] (po, 300 mg/kg (p.o.)), `Cn1c(N2CCN(CCCOc3c(Cl)cc([N+](=O)[O-])cc3Cl)CC2)cc(=O)n(C)c1=O` [Compound 165, 1,3-dimethyl-6-{4-[3-(2,6-dichloro-4-nitrophenyloxy)propyl]piperazin-1-yl}-2,4(1H,3H)-pyrimidinedione hydrochloride] gave a mortality at 24 h of 0%.

Take `Cn1c(NCCN(CCCc2ccc([N+](=O)[O-])cc2)CCOC(=O)c2ccccc2)cc(=O)n(C)c1=O` [Compound 168, 1,3-dimethyl-6-{2-[N-(2-benzoyloxyethyl)-3-(4-nitrophenyl)propylamino]ethylamino}-2,4(1H,3H)-pyrimidinedione oxalate]: in data set [1], the activation at 1 µg/mL was found to be 48%, the activation at 3 µg/mL worked out at 55% and the activation at 10 µg/mL is 68%. Further, in data set [2], the change in vivo at 0.1 mg/kg was 6%, the change in vivo at 0.3 mg/kg stood at 12%, the change in vivo at 1 mg/kg is 18% and the change in vivo at 3 mg/kg was determined as 18%.

In the case of `CCOC(=O)CN(CCCc1ccc([N+](=O)[O-])cc1)CCNc1cc(=O)n(C)c(=O)n1C` [Compound 175, 1,3-dimethyl-6-{2-[N-ethoxycarbonylmethyl-3-(4-nitrophenyl)propylamino]ethylamino}-2,4(1H,3H)-pyrimidinedione oxalate], in data set [1], the activation at 1 µg/mL came out at 8% and the activation at 3 µg/mL worked out at 16%. This molecule also gave a mortality at 24 h in data set [3] (po, 300 mg/kg (p.o.)) of 0%.

`CC(C)NC[C@@H](O)c1ccc(NS(C)(=O)=O)cc1` [d-sotalol, reference compound] had an activation at 0.3 µg/mL in data set [1] (0.3 μg/ml, (B-A)/A×100) of 0%. In addition, in data set [1], the activation at 1 µg/mL is 3%, the activation at 3 µg/mL was determined as 7.4% and the activation at 10 µg/mL turned out to be 15.8%. In addition, in data set [2], the change in vivo at 0.1 mg/kg was 1.7%, the change in vivo at 0.3 mg/kg turned out to be 6.7%, the change in vivo at 1 mg/kg was found to be 8.7% and the change in vivo at 3 mg/kg is 15.5%.

The mortality is the share of the test organisms that died. A higher mortality goes with fewer survivors.
